Results reported in PubChem BioAssay AID248 (DTP/NCI, 2004).
Several values for one entry are separate records, joined by “and”; a condition that tells them apart may be missing. Identical values can stand only once. Toxic doses and inconclusive results are not listed. Cut-off read from the data, not from the text of the source: active = T/C of 150% or more; inactive = T/C below 125%.

Tested on: L1210 leukemia ip in BDF1 mice, survival T/C
Assay: NCI In Vivo Anticancer Drug Screen. Data for tumor model L1210 Leukemia (intraperitoneal) in B6D2F1 (BDF1) mice
Conditions: endpoint: mean survival time, higher = longer survival
In short: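 In this screen, tumor-bearing mice given compound are compared to those given vehicle, and their survival values are reported as a treated-to-control quotient.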

[1] = dose: 100.0 mg/kg/injection, schedule: Q01DX001 (ip), vehicle: carboxymethylcellulose (CMC)
[2] = dose: 200.0 mg/kg/injection, schedule: Q01DX001 (ip), vehicle: carboxymethylcellulose (CMC)
[3] = dose: 400.0 mg/kg/injection, schedule: Q01DX001 (ip), vehicle: carboxymethylcellulose (CMC)
[4] = dose: 100.0 mg/kg/injection, schedule: Q01DX009 (ip), vehicle: Klucel (hydroxypropylcellulose) (HPC)
[5] = dose: 100.0 mg/kg/injection, schedule: Q04DX003 (ip), vehicle: Klucel (hydroxypropylcellulose) (HPC)
[6] = dose: 200.0 mg/kg/injection, schedule: Q04DX003 (ip), vehicle: Klucel (hydroxypropylcellulose) (HPC)
[7] = dose: 400.0 mg/kg/injection, schedule: Q04DX003 (ip), vehicle: Klucel (hydroxypropylcellulose) (HPC)

Measured: T/C

O=C1c2ccccc2C(=O)c2c(O)c3c(c(O)c21)CC=CC3
inactive: dose: 0.25 mg/kg/injection, schedule: Q04DX003 (ip), vehicle: saline with Tween-80 94 % of control | dose: 0.5 mg/kg/injection, schedule: Q04DX003 (ip), vehicle: saline with Tween-80 104 % of control | dose: 1.0 mg/kg/injection, schedule: Q04DX003 (ip), vehicle: saline with Tween-80 100 % of control | dose: 2.0 mg/kg/injection, schedule: Q04DX003 (ip), vehicle: saline with Tween-80 104 % of control | dose: 4.0 mg/kg/injection, schedule: Q04DX003 (ip), vehicle: saline with Tween-80 102 % of control | dose: 6.0 mg/kg/injection, schedule: Q04DX003 (ip), vehicle: saline with Tween-80 102 % of control | dose: 8.0 mg/kg/injection, schedule: Q04DX003 (ip), vehicle: saline with Tween-80 93 % of control | dose: 12.0 mg/kg/injection, schedule: Q04DX003 (ip), vehicle: saline with Tween-80 103 % of control | dose: 16.0 mg/kg/injection, schedule: Q04DX003 (ip), vehicle: saline with Tween-80 93 % of control | dose: 24.0 mg/kg/injection, schedule: Q04DX003 (ip), vehicle: saline with Tween-80 102 % of control | dose: 32.0 mg/kg/injection, schedule: Q04DX003 (ip), vehicle: saline with Tween-80 100 % of control | dose: 48.0 mg/kg/injection, schedule: Q04DX003 (ip), vehicle: saline with Tween-80 103 % of control | dose: 64.0 mg/kg/injection, schedule: Q04DX003 (ip), vehicle: saline with Tween-80 96 % of control | dose: 128.0 mg/kg/injection, schedule: Q04DX003 (ip), vehicle: saline with Tween-80 105 % of control

COC1=C(NCc2ccco2)C(=O)C(OC)=C(NCc2ccco2)C1=O
inactive: dose: 50.0 mg/kg/injection, schedule: Q01DX001 (ip), vehicle: carboxymethylcellulose (CMC) 96 % of control | [1] 91 % of control | [2] 86 % of control | [3] 96 % of control

CC(=O)OC1COC(n2cnc3c(N4CCCCC4)nc(Cl)nc32)C(OC(C)=O)C1OC(C)=O (stereo unspecified)
inactive: dose: 100.0 mg/kg/injection, schedule: Q01DX001 (ip), vehicle: saline 102 % of control | dose: 200.0 mg/kg/injection, schedule: Q01DX001 (ip), vehicle: saline 96 % of control | dose: 400.0 mg/kg/injection, schedule: Q01DX001 (ip), vehicle: saline 102 % of control

CSc1ccc(OC(=O)Nc2cc([N+](=O)[O-])ccc2F)cc1C
inactive: dose: 100.0 mg/kg/injection, schedule: Q04DX002 (ip), vehicle: saline with Tween-80 89 % of control | dose: 100.0 mg/kg/injection, schedule: Q04DX002 (ip), vehicle: saline 92 % of control | dose: 200.0 mg/kg/injection, schedule: Q04DX002 (ip), vehicle: saline with Tween-80 93 % of control | dose: 200.0 mg/kg/injection, schedule: Q04DX002 (ip), vehicle: saline 110 % of control | dose: 400.0 mg/kg/injection, schedule: Q04DX002 (ip), vehicle: saline with Tween-80 91 % of control | dose: 800.0 mg/kg/injection, schedule: Q04DX002 (ip), vehicle: saline with Tween-80 93 % of control

Nc1nc(N)c(N=Nc2ccc(S(=O)(=O)Nc3ccccn3)cc2)cc1N=Nc1ccccc1
inactive: [1] 94 % of control | [2] 102 % of control | [3] 103 % of control

O=C(NCCCl)n1cncn1
inactive: dose: 100.0 mg/kg/injection, schedule: Q01DX009 (ip), vehicle: acetone 100 % of control | dose: 100.0 mg/kg/injection, schedule: Q04DX003 (ip), vehicle: acetone 102 % of control | dose: 200.0 mg/kg/injection, schedule: Q01DX009 (ip), vehicle: acetone 92 % of control | dose: 200.0 mg/kg/injection, schedule: Q04DX003 (ip), vehicle: acetone 102 % of control | dose: 400.0 mg/kg/injection, schedule: Q01DX009 (ip), vehicle: acetone 103 % of control | dose: 400.0 mg/kg/injection, schedule: Q04DX003 (ip), vehicle: acetone 102 % of control

Cc1c2ccccc2[n+](C)c2ccc3ccccc3c12
inactive: dose: 75.0 mg/kg/injection, schedule: Q01DX001 (ip), vehicle: carboxymethylcellulose (CMC) 94 % of control | dose: 150.0 mg/kg/injection, schedule: Q01DX001 (ip), vehicle: carboxymethylcellulose (CMC) 94 % of control | dose: 300.0 mg/kg/injection, schedule: Q01DX001 (ip), vehicle: carboxymethylcellulose (CMC) 96 % of control

CCOC(=O)CNC(=O)C(CSC(c1ccccc1)(c1ccccc1)c1ccccc1)NC(c1ccccc1)(c1ccccc1)c1ccccc1 (stereo unspecified)
inactive: dose: 50.0 mg/kg/injection, schedule: Q01DX009 (ip), vehicle: saline 89 % of control | dose: 100.0 mg/kg/injection, schedule: Q01DX009 (ip), vehicle: saline 103 % of control | dose: 200.0 mg/kg/injection, schedule: Q01DX009 (ip), vehicle: saline 92 % of control | dose: 400.0 mg/kg/injection, schedule: Q01DX009 (ip), vehicle: saline 94 % of control

O=c1[nH]c(=O)n(CCCOc2ccccc2)cc1CCc1ccccc1
inactive: dose: 100.0 mg/kg/injection, schedule: Q01DX001 (ip), vehicle: Klucel (hydroxypropylcellulose) (HPC) 91 % of control | dose: 200.0 mg/kg/injection, schedule: Q01DX001 (ip), vehicle: Klucel (hydroxypropylcellulose) (HPC) 94 % of control | dose: 400.0 mg/kg/injection, schedule: Q01DX001 (ip), vehicle: Klucel (hydroxypropylcellulose) (HPC) 87 % of control

O=C1CSc2cc[nH]c21
inactive: [4] 95 % of control | [5] 100 % of control | [6] 95 % of control | [7] 98 % of control

CCN(CC)CCSc1nc2ccccc2[nH]1
inactive: dose: 55.0 mg/kg/injection, schedule: Q01DX Z (ip), vehicle: saline 104 % of control | dose: 83.0 mg/kg/injection, schedule: Q01DX Z (ip), vehicle: saline 91 % of control | dose: 125.0 mg/kg/injection, schedule: Q01DX Z (ip), vehicle: saline 94 % of control

Nc1c(F)c(F)c(-c2c(F)c(F)c(N)c(F)c2F)c(F)c1F
inactive: dose: 37.5 mg/kg/injection, schedule: Q04DX003 (ip), vehicle: saline with Tween-80 98 % of control | dose: 75.0 mg/kg/injection, schedule: Q04DX003 (ip), vehicle: saline with Tween-80 102 % of control | dose: 150.0 mg/kg/injection, schedule: Q04DX003 (ip), vehicle: saline with Tween-80 95 % of control

Cc1ccc([N+](=O)[O-])cc1NC(=O)Nc1ccc(Nc2ccccc2)cc1
inactive: dose: 100.0 mg/kg/injection, schedule: Q04DX002 (ip), vehicle: Klucel (hydroxypropylcellulose) (HPC) 86 % of control | dose: 200.0 mg/kg/injection, schedule: Q04DX002 (ip), vehicle: Klucel (hydroxypropylcellulose) (HPC) 86 % of control | dose: 400.0 mg/kg/injection, schedule: Q04DX002 (ip), vehicle: Klucel (hydroxypropylcellulose) (HPC) 97 % of control

Cc1nc2c(O)cccn2c(=O)c1Cl
inactive: dose: 25.0 mg/kg/injection, schedule: Q01DX009 (ip), vehicle: saline with Tween-80 92 % of control | dose: 50.0 mg/kg/injection, schedule: Q01DX009 (ip), vehicle: saline with Tween-80 94 % of control | dose: 100.0 mg/kg/injection, schedule: Q01DX009 (ip), vehicle: saline with Tween-80 97 % of control

Nc1ccc(S(=O)(=O)c2ccc(N)cc2)cc1
inactive: dose: 100.0 mg/kg/injection, schedule: Q01DX001 (ip), vehicle: other 100 % of control | [5] 96 % of control | dose: 200.0 mg/kg/injection, schedule: Q01DX001 (ip), vehicle: other 97 % of control | [6] 101 % of control | dose: 400.0 mg/kg/injection, schedule: Q01DX001 (ip), vehicle: other 107 % of control | [7] 101 % of control

O=C(NCc1ccco1)c1cccc(F)c1
inactive: dose: 25.0 mg/kg/injection, schedule: Q01DX009 (ip), vehicle: Klucel (hydroxypropylcellulose) (HPC) 93 % of control | dose: 50.0 mg/kg/injection, schedule: Q01DX009 (ip), vehicle: Klucel (hydroxypropylcellulose) (HPC) 95 % of control | [4] 104 % of control and 109 % of control
